What all share (type): cell-based
The test system of test [1] is A549 lung cancer stem cells. Description: cytotoxic IC50 evaluation against A549 cells. The source says: (§1) Referring to FIG. 3, cytotoxic inhibitory concentration of 50 (IC50) evaluation of YS3 against various cancer cells is illustrated.
Another test has as its system PC3 cancer stem cells. Description: cytotoxic IC50 evaluation against PC3 cells.
Source text: as §1

A further test relates to HELA cancer stem cells. Description: cytotoxic IC50 evaluation against HeLa cells.
Source text: as §1

For test [2], the system named is MDA-MB-468 cancer stem cells. Put plainly: cytotoxic IC50 evaluation against MDA-MB-468 cells. The conditions noted are these: Homo sapiens, read from FIG. 3.
Source text: as §1

The subject of another test is FaDu cancer stem cells. Put plainly: cytotoxic IC50 evaluation against FaDu cells. The conditions noted are these: Homo sapiens, read from FIG. 3.
Source text: as §1

Each structure is given as a SMILES string. In brackets after ≈: the same amount, converted by molar mass.

As usually defined, the IC50 is the midpoint of a concentration-inhibition curve.

In the case of `CCCCCOc1ccc(Oc2ccc(C=O)cc2)cc1` [YS3, 4-(4-(pentoxy)phenoxy)benzaldehyde], the “performance compared to doxorubicin (DOX)” value (in test [1] (A549 cell line); with PC3 cancer stem cells (PC3 cell line); in the test with HELA cancer stem cells (HeLa cell line)) was “comparable to DOX” each time. Besides, the half-inhibitory concentration (IC50) in test [1] (Homo sapiens, A549 lung cancer stem cells, read from FIG. 3) was roughly 5 mg/L (≈ 17.6 µM); in the test with PC3 cancer stem cells (Homo sapiens, PC-3, PC3 cancer stem cells, read from FIG. 3), roughly 4 mg/L (≈ 14.1 µM); in the test with HELA cancer stem cells (Homo sapiens, HELA cancer stem cells, read from FIG. 3), roughly 5 mg/L (≈ 17.6 µM); in test [2], roughly 4.5 mg/L (≈ 15.8 µM); with FaDu cancer stem cells, roughly 4 mg/L (≈ 14.1 µM).

For the origin of these results see patent US12377058B1, “Method for inhibiting proliferation of cancer cells” (IMAM MOHAMMAD IBN SAUD ISLAMIC UNIVERSITY, priority 2024, dated 2025).
